Patent publication US7692011B2, “8-hydroxy and 8-mercapto quinazolinones” (Prana Biotechnology Limited, priority 2002, dated 2010)
Converted amounts (≈) assume the structure as drawn. Where two headings read alike, the source gives them in different places.

Legend:
[1] = biological target: T1, Aβ 1-42 (Homo sapiens, UniProt P05067); test: Assay 1 Fluorometric H2O2 assay: inhibition of hydrogen peroxide generation by Aβ in the presence of copper; format: biochemical; conditions: Aβ 1-42 with Cu-Gly, DCF fluorescence
T1 construct: The reaction solutions contained Aβ 1-42
T1 sequence (P05067 672-713 limits assumed): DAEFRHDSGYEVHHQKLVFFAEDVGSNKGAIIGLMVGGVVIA
Method: Assay 1. Fluorometric H2O2 Assay
A fluorometric assay was used to test the ability of a test compound to inhibit hydrogen peroxide generation by Aβ in the presence of copper based on dichlorofluoroscein diacetate (DCF; Molecular Probes, Eugene Oreg.). The DCF solution (5 mM) in 100% dimethyl sulphoxide (previously purged with argon for 1 hr at 20° C.) was deacetylated in the presence of 0.025M NaOH for 30 min and neutralised at pH 7.4 to a final concentration of 1 mM. Horseradish peroxidase ([…]) stock solution was prepared to 1 μM at pH 7.4. The reactions were carried out in PBS, pH 7.4 in a 96 well plate (total volume=250 μl/well). The reaction solutions contained Aβ 1-42 at concentrations in the range of 50 nM to 1 μM, copper-glycine chelate (Cu-Gly), was prepared by adding CuCl2 to glycine in the ratio of 1:6 and added to the Aβ in the proportion 2Cu-Gly: 1Aβ), reducing agents including dopamine (5 μM) or ascorbic acid, deacetylated DCF 100 μM, and HRP, 0.1 μM. 1-10 μM EDTA or another chelator may also be present as a control for free copper, but was not required for the assay to function. The reaction mixture was incubated at 37 C for 60 min. Catalase (4000 units/ml) and H2O2 (1-2.5 μM) standards in PBS pH 7.4 may be included as positive controls. Fluorescence was recorded using a plate reader with excitation and emission filters at […] respectively. H2O2 concentration may be established by comparing fluorescence with the H2O2 standards. Inhibition of Aβ H2O2 production was assayed by including a given concentration of test compound(s) in the test wells.

[2] = tested on: Neuronal cortical cells treated with Aβ1-42; test: Assay 3(c) Aβ neurotoxicity and Aβ neuroprotection (MTS); format: cell-based, mouse; conditions: 20 uM Aβ1-42, 4 days
Method: Primary Cortical Neuronal Cultures
Cortical cultures were prepared as previously described (White et al., 1998). Embryonic day 14 BL6Jx129sv mouse cortices were removed, dissected free of meninges and dissociated in 0.025% (wt/vol) trypsin. Dissociated cells were plated in 48 well culture plates at a density of 2×10^6 cells/mL in MEM with 25% (vol/vol) FCS and 5% (vol/vol) HS and incubated at 37° C., 2 hrs. Media was then replaced with Neurobasal media (Invitrogen Life Technologies) and B27 supplements (Invitrogen Life Technologies). Cultures were maintained at 37° C. in 5% CO2. Prior to experimentation, the culture medium was replaced with Neurobasal media and B27 minus antioxidants (Invitrogen Life Technologies).
(c) Assay for Aβ Neurotoxicity and Aβ Neuroprotection
Neuronal cortical cells were cultured for five days as per Assay 2. On day six the neurobasal (NB) media (Invitrogen Life Technologies) and B27 supplement (Invitrogen Life Technologies) were replaced with NB media and B27 supplement (no antioxidants). On day six, test compounds were individually added to the neuronal cell cultures:
(§1) The test compounds were dissolved in 100% DMSO to a concentration of 2.5 mM (10 mM if excess compound was weighed out per vial—then diluted to 2.5 mM). 2.5 mM stock solution was serially diluted 1 in 10 to give working solutions of 250 uM, 25 uM, 2.5 uM.
Aβ was initially dissolved in 20 mM NaOH to a concentration of 1 mM and sonicated for 5 minutes. The peptide was then diluted in H2O and 10×PBS to a final concentration of 200 uM Aβ in 1×PBS. The peptide was again sonicated for 5 minutes and then spun at 14000 rpm for 5 min and transferred to a fresh tube.
as §1, with “in 10 [in NB media and B27 (no antioxidants)] to give” for “in 10 to give”, “2.5 uM. Test compounds were not added directly to cells, instead they were added to a 48 well ‘Drug Plate’ as comprised below:” for “2.5 uM.”
Preparation of “Drug Plate”:
• Well 1: 515 ul NB+B27(no antioxidant)*+24 ul 25 uM test compound+60 ul Aβ diluent** • Well 2: 515 ul NB+B27(no antioxidant)+24 ul 250 uM test compound+60 ul Aβ diluent • Well 3: 515 ul NB+B27(no antioxidant)+24 ul test compound diluent***+60 ul Aβ1-42 • Well 4: 515 ul NB+B27(no antioxidant)+24 ul 2.5 uM test compound+60 ul Aβ1-42 • Well 5: 515 ul NB+B27(no antioxidant)+24 ul 25 uM test compound+60 ul Aβ1-42 • Well 6: 515 ul NB+B27(no antioxidant)+24 ul 250 uM test compound+60 ul […] • Well 7: 515 ul NB+B27(no antioxidant)+24 ul test compound diluent+60 ul Aβ1-42 diluent • Well 8: 600 ul NB+B27(no antioxidant) • N.B. 60 ul Aβ1-42 equals 20 ul Aβ1-42 per well equals 20 uM Aβ1-42
The Drug Plate was incubated at 37° C. for 15 mins. 200 ul of each well was added in triplicate to the corresponding cell plate. The cell plate was incubated at 37 C, for 4 days. • * NB media+B27 (no antioxidants), • ** Aβ diluent 2 mM NaOH, 1×PBS • *** PBT diluent 10% DMSO in NB+B27(no antioxidant) Completion of the Assay:
On the 4th day after treating the cells the assay is completed by adding MTS to the cells.

[3] = Assay 12 Turbidimetric solubility measurements; format: physicochemical; conditions: kinetic from dmso stock, nephelometry
Method: Turbidimetric Solubility Measurements
The solubility estimate was measured at both pH 2.0 and pH 6.5. This is within the pH range that can be anticipated along the proximal gastrointestinal tract in humans.
The compounds were dissolved in DMSO to appropriate concentrations and then spiked into either 0.01M HCl (approx. pH=2.0) or pH 6.5 isotonic phosphate buffer, the final DMSO concentration being 1%. Samples were then analysed via Nephelometry to determine a solubility range. [as per D. Bevan and R. S. Lloyd, Anal. Chem. 2000, 72, 1781-1787].

[4] = aqueous buffer, pH 6.5 isotonic phosphate buffer, 1% DMSO, read-out: Assay 12 Solubility at pH 6.5
[5] = simulated gastric fluid, 0.01 M HCl, pH 2.0, 1% DMSO, read-out: Assay 12 Solubility in 0.01 M HCl, pH 2.0

| IC50 [1] | solubility [3, 4] | solubility [3, 5] | SMILES | Assay 3(c) Neuroprotection (% inhibition of Abeta toxicity) [2] |
| --- | --- | --- | --- | --- |
| 0.63 µM | > 0.2 mg/mL | 0.05 to 0.1 mg/mL (≈ 216 to 432 µM) | Oc1c(N2CCOCC2)ncc2cccnc12 [PBT-1053, 7-Morpholin-4-yl-[1,6]naphthyridin-8-ol] | 11% |
| 0.45 µM | 0.0125 to 0.025 mg/mL (≈ 46.1 to 92.2 µM) | 0.0031 to 0.0062 mg/mL (≈ 11.4 to 22.9 µM) | O=c1c2c(Cl)cc(Cl)c(O)c2ncn1C1CC1 [PBT-1061, 5,7-Dichloro-3-cyclopropyl-8-hydroxy-3H-quinazolin-4-one] | 16% |
| 0.62 µM | < 0.005 mg/mL | < 0.01 mg/mL | O=c1c(-c2ccc(Cl)cc2)cnc2c(O)c(I)ccn12 [PBT-1063, 3-(4-Chlorophenyl)-9-hydroxy-8-iodopyrido[1,2-a]pyrimidin-4-one] | 3% |
